In patent US8618111B2, “5-alkynyl-pyrimidines” (Boehringer Ingelheim International GmbH, priority 2010, dated 2013):

Legend:
[1] = system: PC3 (human prostate carcinoma cell line) cells; assay: PC3 proliferation test; format: cell-based; details: PC-3, 72 h, 3 days incubation, DNA dye fluorescence
Experimental: The test is based on measurement of cellular DNA content via fluorescent dye binding. Because cellular DNA content is highly regulated, it is closely proportional to cell number. The extent of proliferation is determined by comparing cell counts for samples treated with drugs with untreated controls.
PC3 (human prostate carcinoma cell line) cells are sown in microtitre plates and incubated overnight in culture medium at 37° C. and 5% CO2. The test substances are diluted stepwise and added to the cells such that the total volume is 200 μL/well. Cells to which diluent, but not substance, is added serve as controls.

PI3Kalpha = PI3Kalpha (Homo sapiens (Human), UniProt P42336); assay: Inhibition of PI3Kalpha-induced PIP-2 phosphorylation (filter-binding assay); format: biochemical; details: 33P-ATP
Experimental: Inhibition of PI3Kalpha-Induced PIP-2 Phosphorylation
Method Type: Filter-Binding-Assay
Aliquoted in desired amounts and stored at −80° C. Final assay concentration 25 ng/well.

mTOR = mTOR (Homo sapiens (Human), UniProt P42345); assay: mTOR kinase activity assay (phosphorylation status of mTOR substrate 4E-BP1; TR-FRET); format: biochemical; details: GFP-4E-BP1 substrate, 8 μM ATP
Sequence of mTOR (P42345 1360-2549): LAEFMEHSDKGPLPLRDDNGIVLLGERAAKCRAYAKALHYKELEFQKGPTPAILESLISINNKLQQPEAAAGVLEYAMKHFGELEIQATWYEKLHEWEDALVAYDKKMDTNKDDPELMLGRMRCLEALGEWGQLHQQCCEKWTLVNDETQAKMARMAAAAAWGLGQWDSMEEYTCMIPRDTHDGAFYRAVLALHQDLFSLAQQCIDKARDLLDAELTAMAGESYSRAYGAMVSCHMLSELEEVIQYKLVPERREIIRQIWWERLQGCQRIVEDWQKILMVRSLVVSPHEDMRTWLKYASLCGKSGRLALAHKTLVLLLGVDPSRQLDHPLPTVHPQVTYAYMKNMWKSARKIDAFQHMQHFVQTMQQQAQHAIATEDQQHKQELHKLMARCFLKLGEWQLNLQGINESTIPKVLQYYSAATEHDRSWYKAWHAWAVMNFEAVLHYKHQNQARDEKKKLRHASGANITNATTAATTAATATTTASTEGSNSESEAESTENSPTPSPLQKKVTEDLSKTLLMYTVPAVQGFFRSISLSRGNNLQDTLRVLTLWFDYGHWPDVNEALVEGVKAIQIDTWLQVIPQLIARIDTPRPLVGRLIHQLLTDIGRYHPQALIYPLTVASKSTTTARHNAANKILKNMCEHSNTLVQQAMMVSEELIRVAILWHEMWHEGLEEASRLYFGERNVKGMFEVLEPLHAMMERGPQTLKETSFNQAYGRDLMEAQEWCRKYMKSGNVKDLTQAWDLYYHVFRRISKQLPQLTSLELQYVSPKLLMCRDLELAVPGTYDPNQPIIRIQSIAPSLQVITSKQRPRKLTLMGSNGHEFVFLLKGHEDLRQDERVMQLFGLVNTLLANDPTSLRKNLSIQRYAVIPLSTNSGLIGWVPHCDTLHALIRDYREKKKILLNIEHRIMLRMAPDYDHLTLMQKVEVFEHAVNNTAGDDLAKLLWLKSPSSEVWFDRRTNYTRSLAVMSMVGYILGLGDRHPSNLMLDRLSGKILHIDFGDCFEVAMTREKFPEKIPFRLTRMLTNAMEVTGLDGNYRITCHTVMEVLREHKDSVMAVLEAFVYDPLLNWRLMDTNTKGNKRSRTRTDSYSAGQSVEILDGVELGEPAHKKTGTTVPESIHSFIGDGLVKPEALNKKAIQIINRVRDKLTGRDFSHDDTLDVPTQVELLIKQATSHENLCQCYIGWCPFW
Experimental: mTOR Kinase Activity Assay
(Phosphorylation Status of mTOR Substrate 4E-BP1; TR-FRET)
The mTOR kinase TR-FRET assay utilizes a physiologically relevant protein substrate for mTOR (4E-BP1, labeled with an acceptor fluorophore (Green Fluorescent Protein) and paired with a corresponding Tb-labeled phospho-specific antibody.
The assay itself is divided into two phases: the reaction phase and the detection phase. In the reaction phase, all components required for the kinase reaction are added to the well, including the labeled protein substrate. The reaction is allowed to incubate for 60 minutes. After the reaction, EDTA is added to stop the kinase reaction, and terbium-labeled antibody is added to bind phosphorylated product. Because the terbium chelate is stable at the EDTA concentrations used to stop a kinase assay, the antibody and EDTA can be pre-mixed prior to addition to minimize pipetting steps. Binding of the terbium labeled antibody to the fluorophore-labeled phosphorylated product brings the terbium and GFP into proximity, resulting in an increase in TR-FRET. In the presence of an inhibitor, formation of phosphorylated product is reduced, and the TR-FRET value is decreased.
• GFP-4E-BP1 substrate; Invitrogen order no. PV4759 • Lanthascreen Tb-anti-p4E-BP1 (pThr46) Antibody Kit; Invitrogen order no. PV4758 • FRAP1 (mTOR) kinase; Invitrogen order no.
400 nM GFP-4E-BP1, 8 μM ATP, ˜150 ng/mL mTOR, 50 mM HEPES pH 7.5, 0.01% Polysorbate 20, 1 mM EGTA, 10 mM MnCl2, and variable amounts of test compounds.
Note: Thaw and keep mTOR, the substrate, ATP, and the antibody on ice prior to making working dilutions. Working dilutions of these components can be kept at room temperature for short periods of time the day of use. • 1. Add 2 ml of 5× Assay Buffer to 8 ml water to prepare 10 ml of 1× Assay Buffer, wherein the concentration of 1× Assay Buffer is 50 mM HEPES pH 7.5, 0.01% Polysorbate 20, 1 mM EGTA, and 10 mM MnCl2. • 2. Prepare Antibody/EDTA Solution by first adding 2.75 μl of Tb-anti p4E-BP1 Antibody to 2397 μl of LanthaScreen™ TR-FRET Dilution Buffer. Then, add 100 μl of 0.5 M EDTA. • 3. […] Then, add 1.6 μl of mTOR (0.45 mg/mL). • 4. Prepare ATP Solution by adding 3.2 μl of 10 mM ATP to 1997 μl of 1× Assay Buffer. Serial Dilution of Inhibitors (16 Point Curve)
Inhibitors are serially diluted in DMSO, then diluted to a 4× working concentration with 1× Assay Buffer. • 1. Dispense 40 μl of DMSO to two adjacent columns of a 96 well plate per compound (e.g. columns 1 and 2). • 2. Add 10 μl of inhibitor stock (10 mM) to the first well of the first column (A1) and mix. • 3. Remove 10 μl from A1 and transfer to the adjacent well in the next column (B1) and mix. • 4. Remove 10 μl from B1 and transfer to the next well in the first column (B2) and mix. • 5. […] Remove 4 μl of diluted compounds and add to 96 μl of 1× Assay Buffer in a 96-well plate making 4× compound dilutions. Kinase Reaction • 1. Add 2.5 μl of 4X compound dilutions to a 384-well plate. • 2. […] Preincubate for […] at RT (shaker). • 5. Add 5 μl of ATP Solution to all wells to start reactions. • 6. Shake the assay plate on a plate shaker for 30 seconds. • 7. Incubate the assay plate for one hour at room temperature (20-25° C.). Stop Step and Fluorescence Detection • 1. Add 10 μl of Antibody/EDTA Solution to each well in columns 1-9. • 2. Shake the assay plate on a plate shaker for 30 seconds. • 3. Incubate the assay plate for one hour at room temperature (20-25° C.). • 4. Measure the GFP (FRET) and terbium (reference) emission signals on a fluorescence plate reader (e.g. Perkin Elmer Envision). Data Analysis • 1. Calculate the emission ratio for each sample by dividing the GFP (FRET) signal by the terbium (reference) signal. • 2.

Sequence of PI3Kalpha (P42336 whole entry, species assumed): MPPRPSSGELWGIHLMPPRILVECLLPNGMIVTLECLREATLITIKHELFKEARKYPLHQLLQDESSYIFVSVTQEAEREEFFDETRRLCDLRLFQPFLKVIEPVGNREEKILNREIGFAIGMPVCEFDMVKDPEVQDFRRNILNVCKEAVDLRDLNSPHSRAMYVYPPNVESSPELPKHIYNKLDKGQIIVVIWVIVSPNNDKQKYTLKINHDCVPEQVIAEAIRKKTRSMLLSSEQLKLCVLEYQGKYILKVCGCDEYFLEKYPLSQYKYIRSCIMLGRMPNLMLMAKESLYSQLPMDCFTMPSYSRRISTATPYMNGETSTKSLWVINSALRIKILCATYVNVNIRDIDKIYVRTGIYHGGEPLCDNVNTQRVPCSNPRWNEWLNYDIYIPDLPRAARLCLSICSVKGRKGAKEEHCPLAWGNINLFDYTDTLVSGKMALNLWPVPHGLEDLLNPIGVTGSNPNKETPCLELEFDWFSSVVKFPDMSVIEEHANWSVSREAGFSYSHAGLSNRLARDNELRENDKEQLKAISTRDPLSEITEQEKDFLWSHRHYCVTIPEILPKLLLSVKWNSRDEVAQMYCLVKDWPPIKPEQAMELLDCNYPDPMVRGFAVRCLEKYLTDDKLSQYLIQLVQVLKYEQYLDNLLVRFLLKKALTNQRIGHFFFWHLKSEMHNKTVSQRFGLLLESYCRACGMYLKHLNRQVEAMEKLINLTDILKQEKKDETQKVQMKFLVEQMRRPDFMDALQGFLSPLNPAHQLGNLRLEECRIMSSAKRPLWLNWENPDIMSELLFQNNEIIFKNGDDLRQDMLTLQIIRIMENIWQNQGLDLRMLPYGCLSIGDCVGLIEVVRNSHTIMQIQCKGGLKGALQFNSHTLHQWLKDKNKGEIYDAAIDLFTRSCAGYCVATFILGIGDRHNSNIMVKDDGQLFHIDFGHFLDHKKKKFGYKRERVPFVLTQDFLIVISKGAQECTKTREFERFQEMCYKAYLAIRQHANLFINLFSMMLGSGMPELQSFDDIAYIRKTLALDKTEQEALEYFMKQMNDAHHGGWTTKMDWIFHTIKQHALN
Sequence of PI3Kalpha (P27986 whole entry partner, species assumed): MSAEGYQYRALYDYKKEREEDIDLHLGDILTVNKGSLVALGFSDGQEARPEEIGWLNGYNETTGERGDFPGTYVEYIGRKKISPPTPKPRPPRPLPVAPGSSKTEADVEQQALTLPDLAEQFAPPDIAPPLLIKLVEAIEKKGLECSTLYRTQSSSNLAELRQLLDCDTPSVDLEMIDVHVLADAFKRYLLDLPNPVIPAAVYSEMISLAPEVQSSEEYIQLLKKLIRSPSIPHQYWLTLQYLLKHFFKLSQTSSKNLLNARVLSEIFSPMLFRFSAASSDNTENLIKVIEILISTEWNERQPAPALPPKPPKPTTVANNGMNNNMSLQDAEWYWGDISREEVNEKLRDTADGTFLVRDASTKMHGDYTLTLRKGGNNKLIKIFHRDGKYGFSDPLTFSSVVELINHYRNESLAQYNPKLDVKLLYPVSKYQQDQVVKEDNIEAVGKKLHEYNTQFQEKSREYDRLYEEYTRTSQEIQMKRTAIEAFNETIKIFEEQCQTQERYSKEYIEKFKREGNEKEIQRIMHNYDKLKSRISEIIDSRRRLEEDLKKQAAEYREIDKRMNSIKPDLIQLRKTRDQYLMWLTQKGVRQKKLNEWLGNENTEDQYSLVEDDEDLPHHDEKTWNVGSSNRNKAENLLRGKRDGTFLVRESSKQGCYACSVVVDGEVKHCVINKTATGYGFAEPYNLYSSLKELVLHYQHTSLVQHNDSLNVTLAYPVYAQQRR

SMILES	EC50 [1] [nM]	IC50 PI3Ka (PI3Kalpha) [nM]	IC50 (mTOR) [nM]
Cc1ncnc(N2CCC(O)(C3CCCCC3)CC2)c1C#Cc1ccc(N)nc1 [Example B-74]	195	98	30
CCc1ncnc(N2CCC(O)(C(C)C)CC2)c1C#Cc1ccc(C)nc1 [Example B-35]	168	172	23
CCc1ncnc(N2CCN(C(=O)CC#N)CC2)c1C#Cc1ccc(N)nc1 [Example G-3]	550	60	91
CCc1ncnc(N2CCC3(CCN(C(=O)COC)CC3)CC2)c1C#Cc1ccc(N)nc1 [Example G-12]	41	37	32
CCN(C)C(=O)CC1CCN(c2ncnc(C)c2C#Cc2ccc(N)nc2)CC1 [Example E-7]	266	44	53
CCc1ncnc(N2CCC3(CC2)OCCCO3)c1C#Cc1ccc(N)nc1 [Example B-61]	33	43	4
CC(=O)N1CCCN(c2ncnc(C)c2C#Cc2ccc(N)nc2)CC1 [Example B-7]	722	348	94
CCc1ncnc(N2CCC(O)CC2)c1C#Cc1ccc(NC)nc1 [Example B-87]	104	76	20
CCc1ncnc(N2CCN(C(=O)c3ccco3)CC2)c1C#Cc1ccc(N)nc1 [Example G-7]	197	37	60
CCc1ncnc(N2CCC(OCCOC)CC2)c1C#Cc1ccc(N)nc1 [Example B-37]	148	89	36
CCc1ncnc(N2CCC(O)CC2)c1C#Cc1ccc(N)nc1 [Example B-48]	141	99	14
CCc1ncnc(N2CCC(O)(C(C)C)CC2)c1C#Cc1ccc(N)nc1 [Example B-63]	8	15	0.61
CCc1ncnc(N2CCN(C)CC2)c1C#Cc1ccc(N)nc1 [Example B-56]	268	1551	57
CCc1ncnc(N2CCC3(CCN(C(C)=O)CC3)CC2)c1C#Cc1ccc(N)nc1 [Example G-11]	55	36	30
Cc1ncnc(N2CCC(CC(=O)N(C)C)CC2)c1C#Cc1ccc(N)nc1 [Example E-1]	221	54	45
CCc1ncnc(N2CCN(CCOC)CC2)c1C#Cc1ccc(N)nc1 [Example B-55]	191	718	26
Cc1ncnc(N2CCCOCC2)c1C#Cc1ccc(N)nc1 [Example B-6]	441	246	72
CCc1ncnc(N2CCC3(CC2)CC(=O)NC(=O)C3)c1C#Cc1ccc(N)nc1 [Example B-82]	77	38	5
Cc1ncnc(N2CCC(CC(=O)N3CCOCC3)CC2)c1C#Cc1ccc(N)nc1 [Example E-6]	358	83	59
CCc1ncnc(N2CCCC(CO)C2)c1C#Cc1ccc(N)nc1 (stereo not drawn) [Example B-49]	124	73	28
Cc1ncnc(N2CCOCC2)c1C#Cc1ccc(N)nc1 [Example B-4]	319	37	38

SMILES	EC50 [1] [nM]	IC50 PI3Ka (PI3Kalpha) [nM]	IC50 (mTOR) [nM]
CCc1ncnc(N2CCC(O)(CC)CC2)c1C#Cc1ccc(C)nc1 [Example B-33]	152	102	51
CCc1ncnc(N2CCN(S(C)(=O)=O)CC2)c1C#Cc1ccc(N)nc1 [Example B-43]	139	88	16
CCOC1CCN(c2ncnc(CC)c2C#Cc2ccc(C)nc2)CC1 [Example B-69]	783	99	168
CCc1ncnc(N2CCC(CCO)CC2)c1C#Cc1ccc(C)nc1 [Example B-29]	234	88	67
Cc1ncnc(N2CCC(O)C(C)C2)c1C#Cc1ccc(N)nc1 (stereo not drawn) [Example B-67]	174	90	43
CC(=O)NC1CCCN(c2ncnc(C)c2C#Cc2ccc(N)nc2)C1 (stereo not drawn) [Example B-24]	352	158	46
Cc1ncnc(N2CCC(O)(C(F)(F)F)CC2)c1C#Cc1ccc(N)nc1 [Example B-32]	15	24	3
Cc1ncnc(N2CCN(CC(C)(C)O)CC2)c1C#Cc1ccc(N)nc1 [Example B-79]	238	53	18
CCc1ncnc(N2CCC(O)(c3ccccc3)CC2)c1C#Cc1ccc(N)nc1 [Example B-16]	34	91	7
CCc1ncnc(N2CCn3c(C)cnc3C2)c1C#Cc1ccc(N)nc1 [Example B-78]	101	72	31
CCc1ncnc(N2CCCC2)c1C#Cc1ccc(N)nc1 [Example B-58]	492	131	42
CCc1ncnc(N2CCN(C(=O)c3ccccn3)CC2)c1C#Cc1ccc(N)nc1 [Example G-2]	138	47	90
CCc1ncnc(N2CCNC(=O)CC2)c1C#Cc1ccc(N)nc1 [Example B-54]	211	133	14
CCc1ncnc(N2CCC(CCO)CC2)c1C#Cc1ccc(N)nc1 [Example B-18]	34	35	5
COCCC(=O)NCC1CCN(c2ncnc(C)c2C#Cc2ccc(N)nc2)CC1 [Example F-5]	141	69	18
CCc1ncnc(N2CCC(O)(C(F)(F)F)CC2)c1C#Cc1ccc(N)nc1 [Example B-19]	3	53	1
CCc1ncnc(N2CCN(C(=O)OC)CC2)c1C#Cc1ccc(N)nc1 [Example G-6]	106	52	101
CC(=O)NCC1CCN(c2ncnc(C)c2C#Cc2ccc(N)nc2)CC1 [Example F-1]	135	36	15
COCCNC(=O)CC1CCN(c2ncnc(C)c2C#Cc2ccc(N)nc2)CC1 [Example E-4]	300	66	144
CCc1ncnc(N2CCC(O)CC2)c1C#Cc1ccc(C)nc1 [Example B-70]	684	139	141
Cc1ncnc(N2CCn3c(C)cnc3C2)c1C#Cc1ccc(N)nc1 [Example B-76]	233	60	97
